Measurements as given in patent US7737169B2, “Anionically substituted 7-nitroindoline derivatives and their uses” (Medical Research Council, priority 2005, dated 2010).

Key:
GABA channels = assay: photolytic release of GABA onto neuronal cells, current responses (FIG. 1); assay type: cell-based
Text: FIG. 1. Current responses to photolytic release of GABA from various concentrations of 6 onto two different neuronal cells, as specified in the FIGURE. The experimental set-up and protocol was as described in reference 4.
A previous evaluation of nitroindoline-caged amino acids in neural tissue has been published^4. […] Tests described here were to assess the photolytic efficiency of GABA release in a neurophysiological experiment with particular attention to point (3), namely the presence or absence of interference of the new caged GABA with GABA-activated channels. If interference is low the expectation is that the rise-time of the receptor activation by photoreleased GABA in the presence of high cage concentration should be similar to that generated by endogenously released GABA, rising in 1-2 ms.

GABA receptors = conditions: caged ester before photolysis; cited from earlier work

Compound | rise-time of current through GABA channels (GABA channels; 0.5 mM GABA released, 1.5 mM caged GABA present, FIG. 1 left panel) [ms] | amplitude and rate of rise of currents through GABA channels (GABA channels; 20-200 μm GABA released by different photolysis intensities, 1.4 mM caged GABA present, FIG. 1 right panel) | pharmacological effects (GABA receptors)
NCCCC(=O)N1CCc2c(OC(COP(=O)(O)O)COP(=O)(O)O)ccc([N+](=O)[O-])c21 [Compound 6, 1-(4-Aminobutanoyl)-4-[1,3-bis(dihydroxyphosphoryloxy)propan-2-yloxy]-7-nitroindoline] | 1 | increasing amplitudes and rates of rise at high concentration | –
NCCCC(=O)OC(C(=O)O)c1ccccc1[N+](=O)[O-] (stereo not drawn) [Compound 5, α-carboxy-2-nitrobenzyl ester of GABA] | – | – | no pharmacological effects
